Data: paper PMC8772768, “Phytochemical Analysis and Dermo-Cosmetic Evaluation of Cymbidium sp. (Orchidaceae) Cultivation By-Products” (Antioxidants, 2021)
≈ marks a conversion by molar mass, not a printed value. Entries after “also recorded” stand apart in the source; their conditions may differ.

Key:
collagenase = assay: Collagenase inhibition assay (fluorescent MMP-2 substrate); assay type: biochemical; conditions: for Collagenase inhibitory activity (in words): pure compounds at 25, 100, 250 μM; for Collagenase inhibition: mean ± SD, n = 3
Procedure: Collagenase inhibitory activity was determined by a previously described enzymatic method with slight modifications, based on the fluorescence of the MMP-2 substrate after its degradation by collagenase. In a 96-well black microplate, 50 μL of Tris-HCL buffer (10 mM, pH = 7.3), 25 μL of the tested sample (dissolved in Tris-HCL buffer), and 25 μL of collagenase solution (30 μg/mL dissolved in Tris-HCL buffer) were preincubated for 10 min at 37 °C, avoiding light exposure. Afterwards, 25 μL of MMP-2 substrate (50 μM dissolved in Tris-HCL buffer) were added, and the plate was incubated for an additional 30 min at 37 °C in the dark. The fluorescent intensity was measured at an excitation maximum of 320 nm and an emission maximum of 405 nm using a Tecan (Infinite 200 Pro series, Männedorf, Switzerland). Crude extracts were evaluated at 75 μg/mL, 150 μg/mL, and 300 μg/mL and pure compounds at 25 μΜ, 100 μΜ, and 250 μΜ, respectively, dissolved in PBS buffer, while the percentage of DMSO was under 5% of the total volume inside the plate. […] Experiments were performed in triplicate. The collagenase inhibitory activity was calculated by the following equation:Inhibition (%) = (Abs A − Abs B)/(Abs A) × 100 where Abs A = Abs Control − Abs Control Blank and Abs B = Abs Sample − Abs Sample Blank. Abs Control is the absorbance of Tris-HCL buffer with 5% DMSO, collagenase enzyme, and substrate, and Abs Sample is the absorbance of the tested sample in the Tris-HCL buffer, collagenase enzyme, and substrate. Blanks consist of all the above reagents except the enzyme.

[1] = tested on: human cell lung cancer (NCI-H187) cell line; design: method as in PMID 30450973; conditions: cited from earlier work
tyrosinase = tyrosinase (Agaricus bisporus, UniProt C7FF04); assay: Tyrosinase inhibition assay (L-DOPA, dopachrome at 475 nm); assay type: biochemical; conditions: pure compounds at 25, 100, 250 μM
Sequence of tyrosinase (C7FF04 1-392): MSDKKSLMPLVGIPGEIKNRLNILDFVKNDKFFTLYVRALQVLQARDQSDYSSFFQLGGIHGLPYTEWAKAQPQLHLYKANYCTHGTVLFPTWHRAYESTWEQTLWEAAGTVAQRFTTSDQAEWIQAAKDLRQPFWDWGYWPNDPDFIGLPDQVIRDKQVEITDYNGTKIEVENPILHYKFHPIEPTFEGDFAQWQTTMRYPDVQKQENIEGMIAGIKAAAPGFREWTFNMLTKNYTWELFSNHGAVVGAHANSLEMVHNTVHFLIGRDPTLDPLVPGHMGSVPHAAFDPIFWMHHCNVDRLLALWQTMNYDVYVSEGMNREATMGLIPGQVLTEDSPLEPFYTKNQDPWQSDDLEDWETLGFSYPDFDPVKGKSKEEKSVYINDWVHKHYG

elastase = target: T1, elastase (Sus scrofa, UniProt P00772); assay: Elastase inhibition assay (N-succinyl-Ala-Ala-Ala-p-nitroanilide); assay type: biochemical; conditions: for Elastase inhibitory activity (in words): pure compounds at 25, 100, 250 μM
T1 construct: purchased Sigma-Aldrich
T1 sequence (P00772 27-266): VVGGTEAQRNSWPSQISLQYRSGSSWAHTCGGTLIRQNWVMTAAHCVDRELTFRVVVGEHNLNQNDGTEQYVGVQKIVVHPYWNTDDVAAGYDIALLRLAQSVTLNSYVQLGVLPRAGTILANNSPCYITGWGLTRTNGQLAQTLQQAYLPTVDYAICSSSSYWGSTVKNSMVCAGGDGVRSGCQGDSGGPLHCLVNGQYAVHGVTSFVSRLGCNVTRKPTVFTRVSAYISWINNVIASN
Procedure: Elastase inhibitory activity was measured by the presence of p-nitroaniline, after the reaction of the elastase enzyme with the substrate N-succinyl-Ala-Ala-Ala-p-nitroanilide, using a previously described protocol with minor modifications. At first, 70 μL of Trizma-base buffer (50 mM, pH = 7.5), 10 μL of the tested sample, and 5 μL of elastase solution (0.4725 U/mL dissolved in Trizma-base buffer) were mixed in the 96-well microplate and were incubated for 10 min at 37 °C, avoiding light exposure. Following this procedure, 15 μL of the substrate (2 mM dissolved in Trizma-base buffer) were added to every well of the plate, and then the plate was incubated for 30 min at 37 °C. The presence of p-nitroaniline was measured spectrophotometrically at 405 nm using a Tecan (Infinite 200 Pro series, Männedorf, Switzerland). The final tested concentrations of the extracts and pure compounds were 50 μg/mL, 100 μg/mL, 300 μg/mL, and 25 μΜ, 100 μΜ, 250 μΜ, respectively, dissolved in Trizma-base buffer, and the percentage of DMSO was under 5% of the total volume inside the plate. The negative control of the assay was 5% DMSO Trizma-base buffer, and the positive was Elastatinal (IC100 = 5 μg/mL and IC50 = 0.5 μg/mL), a strong irreversible competitive elastase inhibitor. Experiments were performed in triplicate.
The elastase inhibitory activity was calculated by the following equation:Inhibition (%) = (Abs A − Abs B)/(Abs A) × 100 where Abs A = Abs Control − Abs Control Blank and Abs B = Abs Sample − Abs Sample Blank. Abs Control is the absorbance of Trizma-base Buffer with 5% DMSO, elastase enzyme, and substrate, and Abs Sample is the absorbance of the tested sample in the Trizma-base buffer, elastase enzyme, and substrate. Blanks consist of all the above reagents except the enzyme.

[2] = DPPH radical scavenging assay; assay type: biochemical; conditions: dissolved in DMSO
Procedure: The final tested concentrations of the extracts were 5 μg/mL, 10 μg/mL, 20 μg/mL, 50 μg/mL, 100 μg/mL, 250 μg/mL, and 500 μg/mL dissolved in DMSO. […] Experiments were performed in triplicate. The antioxidant activity was calculated by the following equation:Inhibition (%) = (Abs A − Abs B)/(Abs A) × 100 where Abs A = Abs Control − Abs Control Blank and Abs B = Abs Sample − Abs Sample Blank. Abs Control is the absorbance of the negative control, and Abs Sample is the absorbance of the tested sample. Blanks consist of all the above reagents except the free radical reagent.

mushroom tyrosinase = tested on: mushroom tyrosinase; design: method as in PMID 18503477; conditions: cited from earlier work

COc1cc2ccc3cccc(O)c3c2c(OC)c1O [Compound 1, bulbophyllanthrin]
Collagenase inhibitory activity (in words) (collagenase): dose-dependent anti-collagenase activity

COc1ccc2c(ccc3cc(OC)c(O)c(OC)c32)c1 [Compound 2, 3-hydroxy-2,4,7-trimethoxy-phenanthrene]
Collagenase inhibition (collagenase; pure compound at 25 μM): 12.62 ± 1.48%
Collagenase inhibition (collagenase; pure compound at 100 μM): 50.05 ± 2.67%
Collagenase inhibition (collagenase; pure compound at 250 μM): 72.73 ± 1.38%
Collagenase inhibitory activity (in words) (collagenase): dose-dependent anti-collagenase activity

COc1cc2c(c(OC)c1O)-c1c(O)cccc1CC2 [Compound 4, marylaurencinol A]
Collagenase inhibitory activity (in words) (collagenase): dose-dependent anti-collagenase activity

COC1=CC(=O)c2c(ccc3cccc(O)c23)C1=O [Compound 5, 5-hydroxy-2-methoxy-1,4-phenanthrenequinone]
Collagenase inhibitory activity (in words) (collagenase): dose-dependent anti-collagenase activity
cytotoxic activity [1]: cytotoxic activity

COC1=CC(=O)C2=C(CCc3cccc(O)c32)C1=O [Compound 6, ephemeranthroquinone B]
Collagenase inhibitory activity (in words) (collagenase): dose-dependent anti-collagenase activity

COc1cc(O)cc(CCc2ccc(O)c(OC)c2)c1 [Compound 8, gigantol]
Tyrosinase inhibitory activity (in words) (tyrosinase): important anti-tyrosinase activity; also recorded: moderate, dose-dependent, inhibition activity
Elastase inhibitory activity (in words) (elastase): non-active
Collagenase inhibitory activity (in words) (collagenase): non-active

COc1cc(CCc2cc(O)cc(O)c2)ccc1O [Compound 9, tristin]
Tyrosinase inhibitory activity (in words) (tyrosinase): important anti-tyrosinase activity; also recorded: moderate, dose-dependent, inhibition activity
Elastase inhibitory activity (in words) (elastase): non-active
Collagenase inhibitory activity (in words) (collagenase): non-active

Cc1cc(O)cc(O)c1 [Compound 14, orcinol]
Elastase inhibitory activity (in words) (elastase): inactive
Collagenase inhibitory activity (in words) (collagenase): inactive

CC(C)C[C@H](NC(=O)N[C@H](C(=O)N[C@@H](CCC(N)=O)C(=O)N[C@@H](C)C=O)[C@@H]1CCNC(=N)N1)C(=O)O [Elastatinal, reference compound]
IC50 (elastase; positive control): 0.975 µM
IC100 (elastase, positive control) (elastase; positive control): 5 µg/mL

O=C(O)c1cc(O)c(O)c(O)c1 [Gallic Acid]
IC50 (DPPH, positive control) [2]: 100 µg/mL (≈ 588 µM)

CC(C)C[C@H](NP(=O)(O)O[C@@H]1O[C@@H](C)[C@H](O)[C@@H](O)[C@H]1O)C(=O)N[C@@H](Cc1c[nH]c2ccccc12)C(=O)O [Phosphoramidon, reference compound]
IC50 (collagenase; positive control): 6.9 µM

Oc1ccc(/C=C/c2cc(O)cc(O)c2)cc1 [resveratrol]
inhibitory effects on mushroom tyrosinase (mushroom tyrosinase): potent inhibitory effects
